In publication PMC8879074, “A Novel Small Molecular Prostaglandin Receptor EP4 Antagonist, L001, Suppresses Pancreatic Cancer Metastasis” (Molecules, 2022):

Key:
[1] = system: Pan02-Luc hepatic metastasis; assay: Pan02-Luc liver metastasis model with bioluminescent imaging; format: in vivo, C57BL/6 mice; conditions: L001 or E7046 75 mg/kg p.o. daily, gemcitabine 25 mg/kg i.p. twice a week; for reduction of Pan02 cell liver metastases (bioluminescence of separated livers) / reduction in median luminescence signal compared with vehicle control group: n = 6; for reduction in median luminescence signal compared with vehicle control group: day 28; for median survival: n = 9, control 34 days
Procedure: (§1) Male C57/BL6 mice (6–8 weeks) were obtained from the National Rodent Laboratory Animal Resources (NRLAR, Shanghai, China). All mice were housed according to Institutional Animal Care and Use Committee guidelines and under a protocol approved by East China Normal University Ethics Committee with respect to animal care and welfare assurance. The bioluminescent liver metastasis mouse model was established as described previously. In brief, 2 × 10^6 Pan02/luc cells suspended in 50 μL of PBS were injected into mice spleen. […] Tumor metastasis was monitored by using an in vivo imaging system following intraperitoneal injection with D-Luciferin (2 mg per mouse; Promega). Bioluminescence intensity was recorded every seven days by a Xenogen IVIS-200 Optical in vivo imaging system (PerkinElmer; Waltham, MA, USA) for up to 4 weeks. The mouse body weight was measured every other day. Survival curve analysis was performed using GraphPad Prism 7.
Mouse liver tissues were harvested, fixed, paraffin embedded, and sectioned (8 μm). The tissues were permeabilized with 0.25% TritonX-100 at room temperature for 15 min, blocked with 1% FBS in PBS, and followed by incubation in primary antibodies at 4 °C overnight: rabbit anti-YAP (1:50 dilution, ab205270, abcam). The sections were then washed with PBS, incubated with anti-rabbit secondary antibody for 2 h and dyed with DAPI (10 μg/mL in PBS) for 5 min at room temperature. Slides were mounted using DPX Mountant (Electron Microscopy Sciences) and images were obtained by inverted fluorescence microscope (Olympus, Tokyo, Japan).

Pan02 cells [2] = assay: Transwell migration assay, Pan02; format: cell-based, murine; conditions: 0.1 μM PGE2; 16 h
Procedure: (§2) The transwell assay was conducted as described previously, using 8 μm pore transwell inserts (Corning, NY, USA). Cells were suspended in serum-free DMEM and seeded into upper chambers at appropriate density. The bottom chamber was filled with DMEM supplemented with 10% fetal bovine serum and indicated concentrations of PGE2. The compounds were added in both upper and bottom chambers. […] Migrated cells were counted and quantified using image J.

BxPC-3 cells [3] = assay: Transwell migration assay, BxPC-3; format: cell-based, human; conditions: 0.1 μM PGE2; 16 h
Procedure: as §2

Pan02 cells [4] = assay: Wound healing assay, Pan02; format: cell-based, murine; conditions: various concentrations of PGE2
Procedure: (§3) The wound healing assay was performed according to a standard protocol as described before. Briefly, Pan02 and BxPC-3 cells were grown as a confluent monolayer in 12-well plates (Corning, Corning, NY, USA) overnight and starved with serum-free medium for 6 h. The monolayer cells were disrupted with a P100 micropipette tip (JET BIOFIL, Guangzhou, China) and rinsed with PBS to remove detached cells. Medium containing different concentrations of compounds was added subsequently. After 24 h, treated cells were stained with 2 μM calcein-AM (Yeasen, Shanghai, China) for 20 min and washed with PBS. Photos were taken of the area in the scraped zone of each dish at 100× magnification by using an inverted fluorescent microscope (OLYMPUS, Tokyo, Japan).

BxPC-3 cells [5] = assay: Wound healing assay, BxPC-3; format: cell-based, human; conditions: various concentrations of PGE2
Procedure: as §3

[6] = system: YAP/TEAD reporter in Pan02 cells; assay: TEAD-driven luciferase reporter assay, Pan02; format: cell-based, murine; conditions: 16 h
Procedure: (§4) CHO-K1 cells or pancreatic cancer cell lines were transfected with a cAMP responsive element (CRE) reporter or TEAD reporter using lipofectamine 2000 according to the manufacturer’s manual. […] Then, cells were lysed and luciferase activities were determined using Dual-Luciferase Reporter Assay Kit (Promega, Madison, WI, USA).

[7] = system: YAP/TEAD reporter in BxPC-3 cells; assay: TEAD-driven luciferase reporter assay, BxPC-3; format: cell-based, human; conditions: 16 h
Procedure: as §4

[8] = system: YAP, CYR61 and CTGF mRNA in Pan02 cells; assay: Real-time qPCR of YAP and YAP target genes, Pan02; format: cell-based, murine; conditions: 10 μM PGE2
Procedure: (§5) Total RNA was extracted from cells using TRIzol reagent. The cDNA was synthesized by RT-PCR kit (Vazyme Biotech, Nanjing, China). The band intensity was determined by the gel image analysis system (Bio-Rad, Hercules, CA, USA). SYBR Green-based qPCR (Yeason, Shanghai, China) was conducted subsequently. Relative mRNA levels of target genes were normalized with β-actin. The sequences of primers are listed in Supplementary Table S1. The raw data are listed in Supplementary Table S2.

[9] = system: YAP, CYR61, CTGF, Vimentin, Snail, E-cadherin mRNA in BxPC-3 cells; assay: Real-time qPCR of YAP, YAP target genes and EMT markers, BxPC-3; format: cell-based, human; conditions: 10 μM PGE2
Procedure: as §5

[10] = system: YAP protein in Pan02 cells; assay: Western blotting of YAP protein, Pan02; format: cell-based, murine; conditions: 10 μM PGE2
Procedure: (§6) Cells were lysed in RIPA lysis buffer with phosphatase and protease inhibitors (Calbiochem, San Diego, CA, USA) and denatured by heating at 100 °C for 10 min. Proteins were separated on 10% bis-tris polyacrylamide gels, transferred to nitrocellulose filter membranes (Millipore, Burlington, NJ, USA), and blocked with 5% BSA (Sangon Biotech, Shanghai, China). The membranes were incubated with the indicated primary antibodies overnight and subsequently probed with indicated secondary antibodies. Images of the blots were taken and analyzed by Odyssey imaging system (Li-COR Biosciences, Lincoln, NE, USA). The primary antibodies were listed as follows: Human-YAP (1:10,000 dilution, CY5381, abways); Mouse-YAP (1:1000 dilution, ab205270, abcam); EP4 (1:500 dilution, 101775, Cayman Chemical); GAPDH (1:10,000 dilution, Ab181602, abcam).

[11] = system: YAP protein in BxPC-3 cells; assay: Western blotting of YAP protein, BxPC-3; format: cell-based, human; conditions: 10 μM PGE2
Procedure: as §6

[12] = Body weight of mice in Pan02-Luc metastasis model; format: in vivo, C57BL/6 mice; conditions: L001 75 mg/kg p.o. daily; gemcitabine 25 mg/kg i.p. twice a week; n = 6
Procedure: as §1

Structure (SMILES)	H&E imaging of liver sections [1]	reduction of Pan02 cell liver metastases (bioluminescence of separated livers) [1] [%]	reduction in median luminescence signal compared with vehicle control group [1] [%]	median survival [1] [days]	increase in migrated Pan02 cells (Pan02 cells [2]) [fold]	increase in migrated BxPC-3 cells (BxPC-3 cells [3]) [fold]	cell motility (wound closure) vs vehicle (Pan02 cells [4])	cell motility (wound closure) vs vehicle (BxPC-3 cells [5])	max luminescence fold increase of TEAD-driven luciferase activity [6] [fold]	max luminescence fold increase of TEAD-driven luciferase activity [7] [fold]	expression of YAP target genes CYR61 and CTGF over time [8]	expression of YAP target genes CYR61 and CTGF over time [9]	level of intracellular YAP protein over time [10]	level of intracellular YAP protein over time [11]	body weight loss [12]
C[C@H](NC(=O)c1c(C(F)F)nn(C)c1Oc1cccc(C(F)(F)F)c1)c1ccc(C(=O)O)cc1 [E7046]	remarkably reduced metastatic clusters	76.42	69.13	35	–	–	–	–	–	–	–	–	–	–	–
CCCCC[C@H](O)/C=C/[C@H]1[C@H](O)CC(=O)[C@@H]1C/C=C\CCCC(=O)O [PGE2, Prostaglandin E2, reference compound]	–	–	–	–	1.2	2.5	significantly promoted the motility	significantly promoted the motility	1.87	1.56	elevated	elevated	significantly increased	significantly increased	–
Nc1ccn([C@@H]2O[C@H](CO)[C@@H](O)C2(F)F)c(=O)n1 [gemcitabine]	remarkably reduced metastatic clusters	93.2	91.79	46	–	–	–	–	–	–	–	–	–	–	barely found
